Experimental findings from publication PMC6237146, “Electron transfer ferredoxins with unusual cluster binding motifs support secondary metabolism in many bacteria” (Chemical Science, 2018) are described below.

Where only a bound is given, the exact number is not on record here.

What all share (type): binding
Test [1] concerns the target T1, CYP147G1 (Mycobacterium marinum, UniProt B2HE89).
T1 construct: produced in E. coli, purified by two ion exchange steps; ferric heme
T1 sequence (B2HE89 1-422): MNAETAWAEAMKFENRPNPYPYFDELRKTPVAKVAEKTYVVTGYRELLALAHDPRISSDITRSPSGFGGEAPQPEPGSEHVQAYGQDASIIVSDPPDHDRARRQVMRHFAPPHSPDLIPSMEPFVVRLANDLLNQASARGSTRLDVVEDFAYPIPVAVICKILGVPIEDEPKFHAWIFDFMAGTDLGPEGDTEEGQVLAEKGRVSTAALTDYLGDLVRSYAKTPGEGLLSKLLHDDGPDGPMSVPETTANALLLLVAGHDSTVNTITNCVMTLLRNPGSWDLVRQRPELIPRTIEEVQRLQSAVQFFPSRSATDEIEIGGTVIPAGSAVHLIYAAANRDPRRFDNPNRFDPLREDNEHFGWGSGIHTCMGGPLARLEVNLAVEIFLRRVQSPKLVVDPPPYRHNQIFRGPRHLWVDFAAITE
The test is described as follows: UV/Vis heme spin-state shift titration. Conditions: read-out: dissociation constant.

The next test concerns the target T2, CYP269A1 (Mycobacterium marinum, UniProt B2HPM5).
T2 construct: produced in E. coli and purified; high-spin-like ferric heme (Soret 390 nm); gene near ferredoxin gene Mmar_3973 (Fdx4)
T2 sequence (B2HPM5 1-403): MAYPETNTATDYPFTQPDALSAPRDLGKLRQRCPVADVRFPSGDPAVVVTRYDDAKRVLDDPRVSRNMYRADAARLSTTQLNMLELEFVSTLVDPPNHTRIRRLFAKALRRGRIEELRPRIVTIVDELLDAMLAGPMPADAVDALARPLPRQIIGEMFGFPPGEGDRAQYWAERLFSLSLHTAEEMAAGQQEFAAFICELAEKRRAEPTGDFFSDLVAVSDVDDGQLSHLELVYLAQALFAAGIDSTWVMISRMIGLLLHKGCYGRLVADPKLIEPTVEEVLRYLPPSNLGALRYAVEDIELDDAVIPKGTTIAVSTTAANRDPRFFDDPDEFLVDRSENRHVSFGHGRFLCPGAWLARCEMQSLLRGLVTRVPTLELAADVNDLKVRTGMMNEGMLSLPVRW
The test is described as follows: UV/Vis heme Soret shift titration.

The target of test [2] is T1, CYP147G1. The test is described as follows: UV/Vis heme spin-state shift. The following applies: purified ferric enzyme; also oxidised to indigo in E. coli with FdR1/Fdx3.
For a further test, the target named is T3, CYP278A1 (Mycobacterium marinum, UniProt B2HE37).
T3 construct: produced in E. coli and purified; ferric heme; gene near ferredoxin gene Mmar_2879 (Fdx2)
T3 sequence (B2HE37 1-427): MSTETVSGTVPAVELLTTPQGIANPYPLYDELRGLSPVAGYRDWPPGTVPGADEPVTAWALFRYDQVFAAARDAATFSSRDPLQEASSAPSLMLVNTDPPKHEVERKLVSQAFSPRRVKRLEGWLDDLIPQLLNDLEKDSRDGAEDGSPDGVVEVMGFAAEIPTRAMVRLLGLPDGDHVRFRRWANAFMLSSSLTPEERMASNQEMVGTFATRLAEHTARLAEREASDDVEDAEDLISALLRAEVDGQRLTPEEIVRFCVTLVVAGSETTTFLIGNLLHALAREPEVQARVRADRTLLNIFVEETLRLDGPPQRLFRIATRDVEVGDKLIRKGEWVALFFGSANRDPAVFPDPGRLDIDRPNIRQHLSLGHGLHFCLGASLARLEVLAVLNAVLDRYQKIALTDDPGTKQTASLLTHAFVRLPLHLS
The test is described as follows: UV/Vis heme spin-state shift titration.

For the next test, the target named is T4, CYP150A5 (Mycobacterium marinum, UniProt B2HG29).
T4 construct: produced in E. coli and purified; ferric heme; gene near ferredoxin gene Mmar_4736 (Fdx8)
T4 sequence (B2HG29 1-423): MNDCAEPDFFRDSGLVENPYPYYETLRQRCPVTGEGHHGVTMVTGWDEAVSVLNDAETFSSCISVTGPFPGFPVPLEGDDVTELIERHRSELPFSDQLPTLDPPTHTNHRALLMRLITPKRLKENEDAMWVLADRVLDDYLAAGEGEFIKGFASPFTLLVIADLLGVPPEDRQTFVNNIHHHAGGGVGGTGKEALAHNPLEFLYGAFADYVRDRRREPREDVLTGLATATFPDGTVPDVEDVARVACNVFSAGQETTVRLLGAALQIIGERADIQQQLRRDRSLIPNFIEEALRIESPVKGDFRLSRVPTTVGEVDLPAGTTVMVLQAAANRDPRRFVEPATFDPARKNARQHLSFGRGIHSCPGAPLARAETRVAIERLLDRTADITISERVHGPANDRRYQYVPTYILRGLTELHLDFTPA
The test is described as follows: UV/Vis heme spin-state shift titration.

Take `CCCCCCCCCCC(=O)O` [undecanoic acid]: the Kd at CYP147G1 [1] was determined as 25 ± 4 µM. In the case of `Clc1ccc(COC(Cn2ccnc2)c2ccc(Cl)cc2Cl)c(Cl)c1` (centres unmarked) [miconazole], the Kd on CYP269A1 was found to be 0.05 ± 0.007 µM. Regarding `c1ccc2[nH]ccc2c1` [indole], the “% high-spin” value on CYP147G1 [2] is under 5%.

In the case of `CC(=O)/C=C/C1=C(C)CCCC1(C)C` [β-ionone], the Kd at CYP278A1 came to 5.1 ± 1.5 µM; at CYP150A5, 41 ± 3 µM.
